Data from US11000033B2, “Ketone or oxime compound, and herbicide” (NISSAN CHEMICAL CORPORATION, priority 2014, dated 2021).

Assays:
Format in all cases: in vivo
Avena fatua = assay: Test Example 5: herbicidal effect by foliage application, plastic box (symbol I); settings: 320 g/ha, 3 weeks after application
Method in brief: (§1)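 Effect is rated 3 weeks after a foliar spray of water-diluted emulsion concentrate at a predetermined herbicide amount. Plants had grown 14 days in a 25° C. to 30° C. greenhouse from seed in sterilized diluvial soil.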

Veronica persica [1] = assay: Test Example 5: herbicidal effect by foliage application, plastic box (symbol R); settings: 320 g/ha, 3 weeks after application
Method in brief: as §1

Stellaria media [2] = assay: Test Example 5: herbicidal effect by foliage application, plastic box (symbol P); settings: 320 g/ha, 3 weeks after application
Method in brief: as §1

[3] = tested on: directly sowed rice plant; assay: Test Example 3: effect on crop by foliage application, Wagner pot (symbol b); settings: application herbicide amount 320 g/ha
Method in brief: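 Plants are raised from seed in flooded paddy conditions: water stands 0.1–0.5 cm over alluvial soil, and the pot is kept in a greenhouse at 25–30 °C. Species sown are barnyardgrass (E. crus-galli var. crus-galli), Leptochloa chinensis, Cyperus difformis and rice.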

Digitaria ciliaris [4] = assay: Test Example 4: herbicidal effect by soil treatment (symbol F)
Method in brief: (§2)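 Seeds were sown in sterilized diluvial soil, covered with about 1.5 cm of soil, and the soil surface was sprayed with a water-diluted emulsion of the compound at a predetermined rate. Plants grew in a greenhouse at 25° C. to 30° C.; effects were scored visually 3 weeks after application.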

rapeseed = assay: Test Example 4: effect on crop by soil treatment (symbol g); settings: for g: rapeseed, effect grade on crop: 320 g/ha
Method in brief: (§3)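 Steps: fill box with sterilized diluvial soil; sow seed spot-like; cover with ~1.5 cm soil; grow in greenhouse (25° C. to 30° C.).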

corn = assay: Test Example 4: effect on crop by soil treatment (symbol c); settings: for c: corn, effect grade on crop: 320 g/ha
Method in brief: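 Grown at 25° C. to 30° C. in a greenhouse, the crops came from seed sown spot-wise in sterilized diluvial soil under roughly 1.5 cm of covering soil.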

Setaria viridis = assay: Test Example 5: herbicidal effect by foliage application, plastic box (symbol G); settings: 320 g/ha, 3 weeks after application
Method in brief: as §1

beet [5] = assay: Test Example 5: effect on crop by foliage application, plastic box (symbol f); settings: 320 g/ha, 3 weeks after application
Method in brief: (§4)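 Crop and weed seeds sown in spots in sterilized diluvial soil in plastic boxes and covered with about 1.5 cm soil. Plants raised in a greenhouse at 25° C. to 30° C. for foliar application.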

Chenopodium album = assay: Test Example 5: herbicidal effect by foliage application, plastic box (symbol O); settings: 320 g/ha, 3 weeks after application
Method in brief: as §1

rice = assay: Test Example 4: effect on crop by soil treatment (symbol b); settings: for b: directly sowed rice plant, effect grade on crop: 320 g/ha
Method in brief: as §3

[6] = tested on: Echinochloa crus-galli var. crus-galli; assay: Test Example 4: herbicidal effect by soil treatment (symbol H); settings: for H: Echinochloa crus-galli var. crus-galli, herbicidal effect grade: 320 g/ha
Method in brief: as §2

Stellaria media [7] = assay: Test Example 4: herbicidal effect by soil treatment (symbol P); settings: for P: Stellaria media, herbicidal effect grade: 320 g/ha
Method in brief: as §2

Galium spurium [8] = assay: Test Example 4: herbicidal effect by soil treatment (symbol Q); settings: for Q: Galium spurium, herbicidal effect grade: 320 g/ha
Method in brief: as §2

Abutilon theophrasti = assay: Test Example 5: herbicidal effect by foliage application, plastic box (symbol M); settings: 320 g/ha, 3 weeks after application
Method in brief: as §1

wheat = assay: Test Example 5: effect on crop by foliage application, plastic box (symbol e); settings: 320 g/ha, 3 weeks after application
Method in brief: as §4

Alopecurus myosuroides = assay: Test Example 4: herbicidal effect by soil treatment (symbol J); settings: for J: Alopecurus myosuroides, herbicidal effect grade: 320 g/ha
Method in brief: as §2

beet [9] = assay: Test Example 4: effect on crop by soil treatment (symbol f); settings: for f: beet, effect grade on crop: 320 g/ha
Method in brief: as §3

Apera spica-venti = assay: Test Example 5: herbicidal effect by foliage application, plastic box (symbol L); settings: 320 g/ha, 3 weeks after application
Method in brief: as §1

Digitaria ciliaris [10] = assay: Test Example 5: herbicidal effect by foliage application, plastic box (symbol F); settings: 320 g/ha, 3 weeks after application
Method in brief: as §1

soybean = assay: Test Example 4: effect on crop by soil treatment (symbol d); settings: for d: soybean, effect grade on crop: 320 g/ha
Method in brief: as §3

rice plant = assay: Test Example 5: effect on crop by foliage application, plastic box (symbol b); settings: 320 g/ha, 3 weeks after application
Method in brief: as §4

Lolium multiflorum Lam. = assay: Test Example 4: herbicidal effect by soil treatment (symbol K); settings: for K: Lolium multiflorum Lam., herbicidal effect grade: 320 g/ha
Method in brief: as §2

Veronica persica [11] = assay: Test Example 4: herbicidal effect by soil treatment (symbol R); settings: for R: Veronica persica, herbicidal effect grade: 320 g/ha
Method in brief: as §2

Galium spurium [12] = assay: Test Example 5: herbicidal effect by foliage application, plastic box (symbol Q); settings: 320 g/ha, 3 weeks after application
Method in brief: as §1

[13] = application herbicide amount 320 g/ha

## CC(CC1CC(O)=C(c2c(C)cc(C)cc2C)C1=O)=NOCC1CC1(F)F (stereo not drawn) [1-109]
Avena fatua
  I: Avena fatua, herbicidal effect (criteria 0-5): 5 (Herbicidal ratio of 90% or more (almost completely withered))
Veronica persica [1]
  R: Veronica persica, herbicidal effect (criteria 0-5): 3 (Herbicidal ratio of 40% or higher and lower than 70%)
Stellaria media [2]
  P: Stellaria media, herbicidal effect (criteria 0-5): 3 (Herbicidal ratio of 40% or higher and lower than 70%)
[3]
  effect on crop b (directly sowed rice plant), grade 0-5: 5 (Herbicidal ratio of 90% or more (almost completely withered))
Digitaria ciliaris [4]; 320 g/ha
  F: Digitaria ciliaris, herbicidal effect grade: 5 (Herbicidal ratio of 90% or more (almost completely withered))
rapeseed
  g: rapeseed, effect grade on crop: 4 (Herbicidal ratio of 70% or higher and lower than 90%)
corn
  c: corn, effect grade on crop: 1 (Herbicidal ratio of 5% or higher and lower than 20%)
Setaria viridis
  G: Setaria viridis, herbicidal effect (criteria 0-5): 5 (Herbicidal ratio of 90% or more (almost completely withered))
Beet [5]
  f: beet, effect on crop (criteria 0-5): 0 (Herbicidal ratio of 5% or lower (almost no effect))
Chenopodium album
  O: Chenopodium album, herbicidal effect (criteria 0-5): 3 (Herbicidal ratio of 40% or higher and lower than 70%)
rice
  b: directly sowed rice plant, effect grade on crop: 5 (Herbicidal ratio of 90% or more (almost completely withered))
[6]
  H: Echinochloa crus-galli var. crus-galli, herbicidal effect grade: 5 (Herbicidal ratio of 90% or more (almost completely withered))
Stellaria media [7]
  P: Stellaria media, herbicidal effect grade: 0 (Herbicidal ratio of 5% or lower (almost no effect))
Galium spurium [8]
  Q: Galium spurium, herbicidal effect grade: 0 (Herbicidal ratio of 5% or lower (almost no effect))
Abutilon theophrasti
  M: Abutilon theophrasti, herbicidal effect (criteria 0-5): 3 (Herbicidal ratio of 40% or higher and lower than 70%)
wheat
  e: wheat, effect on crop (criteria 0-5): 5 (Herbicidal ratio of 90% or more (almost completely withered))
Alopecurus myosuroides
  J: Alopecurus myosuroides, herbicidal effect grade: 5 (Herbicidal ratio of 90% or more (almost completely withered))
Beet [9]
  f: beet, effect grade on crop: 0 (Herbicidal ratio of 5% or lower (almost no effect))
Apera spica-venti
  L: Apera spica-venti, herbicidal effect (criteria 0-5): 5 (Herbicidal ratio of 90% or more (almost completely withered))
Digitaria ciliaris [10]
  F: Digitaria ciliaris, herbicidal effect (criteria 0-5): 5 (Herbicidal ratio of 90% or more (almost completely withered))
soybean
  d: soybean, effect grade on crop: 0 (Herbicidal ratio of 5% or lower (almost no effect))
Rice plant
  b: directly sowed rice plant, effect on crop (criteria 0-5): 5 (Herbicidal ratio of 90% or more (almost completely withered))
Lolium multiflorum Lam.
  K: Lolium multiflorum Lam., herbicidal effect grade: 5 (Herbicidal ratio of 90% or more (almost completely withered))
Veronica persica [11]
  R: Veronica persica, herbicidal effect grade: 2 (Herbicidal ratio of 20% or higher and lower than 40%)

## CC(CC1CC(O)=C(c2c(C)cc(C)cc2C)C1=O)=NOCc1ccc(C(F)(F)F)cc1 (stereo not drawn) [1-138]
Avena fatua
  I: Avena fatua, herbicidal effect (criteria 0-5): 5 (Herbicidal ratio of 90% or more (almost completely withered))
Veronica persica [1]
  R: Veronica persica, herbicidal effect (criteria 0-5): 3 (Herbicidal ratio of 40% or higher and lower than 70%)
Stellaria media [2]
  P: Stellaria media, herbicidal effect (criteria 0-5): 1 (Herbicidal ratio of 5% or higher and lower than 20%)
[3]
  effect on crop b (directly sowed rice plant), grade 0-5: 5 (Herbicidal ratio of 90% or more (almost completely withered))
rapeseed
  g: rapeseed, effect grade on crop: 0 (Herbicidal ratio of 5% or lower (almost no effect))
corn
  c: corn, effect grade on crop: 0 (Herbicidal ratio of 5% or lower (almost no effect))
Setaria viridis
  G: Setaria viridis, herbicidal effect (criteria 0-5): 5 (Herbicidal ratio of 90% or more (almost completely withered))
Beet [5]
  f: beet, effect on crop (criteria 0-5): 0 (Herbicidal ratio of 5% or lower (almost no effect))
Chenopodium album
  O: Chenopodium album, herbicidal effect (criteria 0-5): 0 (Herbicidal ratio of 5% or lower (almost no effect))
rice
  b: directly sowed rice plant, effect grade on crop: 5 (Herbicidal ratio of 90% or more (almost completely withered))
[6]
  H: Echinochloa crus-galli var. crus-galli, herbicidal effect grade: 5 (Herbicidal ratio of 90% or more (almost completely withered))
Stellaria media [7]
  P: Stellaria media, herbicidal effect grade: 0 (Herbicidal ratio of 5% or lower (almost no effect))
Galium spurium [8]
  Q: Galium spurium, herbicidal effect grade: 0 (Herbicidal ratio of 5% or lower (almost no effect))
Abutilon theophrasti
  M: Abutilon theophrasti, herbicidal effect (criteria 0-5): 3 (Herbicidal ratio of 40% or higher and lower than 70%)
Galium spurium [12]
  Q: Galium spurium, herbicidal effect (criteria 0-5): 3 (Herbicidal ratio of 40% or higher and lower than 70%)
wheat
  e: wheat, effect on crop (criteria 0-5): 3 (Herbicidal ratio of 40% or higher and lower than 70%)
Alopecurus myosuroides
  J: Alopecurus myosuroides, herbicidal effect grade: 5 (Herbicidal ratio of 90% or more (almost completely withered))
Beet [9]
  f: beet, effect grade on crop: 0 (Herbicidal ratio of 5% or lower (almost no effect))
Apera spica-venti
  L: Apera spica-venti, herbicidal effect (criteria 0-5): 5 (Herbicidal ratio of 90% or more (almost completely withered))
Digitaria ciliaris [10]
  F: Digitaria ciliaris, herbicidal effect (criteria 0-5): 5 (Herbicidal ratio of 90% or more (almost completely withered))
soybean
  d: soybean, effect grade on crop: 0 (Herbicidal ratio of 5% or lower (almost no effect))
Rice plant
  b: directly sowed rice plant, effect on crop (criteria 0-5): 5 (Herbicidal ratio of 90% or more (almost completely withered))
Lolium multiflorum Lam.
  K: Lolium multiflorum Lam., herbicidal effect grade: 5 (Herbicidal ratio of 90% or more (almost completely withered))
Veronica persica [11]
  R: Veronica persica, herbicidal effect grade: 0 (Herbicidal ratio of 5% or lower (almost no effect))

## CC#Cc1cc(C)c(C2=C(O)CC(CC(=NOCCOC)C3CC3)C2=O)c(C)c1 (stereo not drawn) [9-021]
Avena fatua
  I: Avena fatua, herbicidal effect grade: 4 (Herbicidal ratio of 70% or higher and lower than 90%)
Veronica persica [1]
  R: Veronica persica, herbicidal effect grade: 4 (Herbicidal ratio of 70% or higher and lower than 90%)
Stellaria media [2]
  P: Stellaria media, herbicidal effect grade: 1 (Herbicidal ratio of 5% or higher and lower than 20%)
[3]; Table 24
  b (directly sowed rice plant) effect on crop grade: 5 (Herbicidal ratio of 90% or more (almost completely withered))
Digitaria ciliaris [4]; [13]
  Herbicidal effect grade, F: Digitaria ciliaris: 5 (Herbicidal ratio of 90% or more (almost completely withered))
rapeseed; [13]
  Effect on crop grade, g: rapeseed: 2 (Herbicidal ratio of 20% or higher and lower than 40%)
corn; [13]
  Effect on crop grade, c: corn: 3 (Herbicidal ratio of 40% or higher and lower than 70%)
Setaria viridis
  G: Setaria viridis, herbicidal effect grade: 5 (Herbicidal ratio of 90% or more (almost completely withered))
Beet [5]
  f: beet, effect on crop grade: 0 (Herbicidal ratio of 5% or lower (almost no effect))
Chenopodium album
  O: Chenopodium album, herbicidal effect grade: 3 (Herbicidal ratio of 40% or higher and lower than 70%)
rice; [13]
  Effect on crop grade, b: directly sowed rice plant: 5 (Herbicidal ratio of 90% or more (almost completely withered))
[6]; [13]
  Herbicidal effect grade, H: Echinochloa crus-galli var. crus-galli: 5 (Herbicidal ratio of 90% or more (almost completely withered))
Stellaria media [7]; [13]
  Herbicidal effect grade, P: Stellaria media: 0 (Herbicidal ratio of 5% or lower (almost no effect))
Galium spurium [8]; [13]
  Herbicidal effect grade, Q: Galium spurium: 0 (Herbicidal ratio of 5% or lower (almost no effect))
Abutilon theophrasti
  M: Abutilon theophrasti, herbicidal effect grade: 2 (Herbicidal ratio of 20% or higher and lower than 40%)
wheat
  e: wheat, effect on crop grade: 4 (Herbicidal ratio of 70% or higher and lower than 90%)
Alopecurus myosuroides; [13]
  Herbicidal effect grade, J: Alopecurus myosuroides: 5 (Herbicidal ratio of 90% or more (almost completely withered))
Beet [9]; [13]
  Effect on crop grade, f: beet: 0 (Herbicidal ratio of 5% or lower (almost no effect))
Apera spica-venti
  L: Apera spica-venti, herbicidal effect grade: 5 (Herbicidal ratio of 90% or more (almost completely withered))
Digitaria ciliaris [10]
  F: Digitaria ciliaris, herbicidal effect grade: 5 (Herbicidal ratio of 90% or more (almost completely withered))
soybean; [13]
  Effect on crop grade, d: soybean: 0 (Herbicidal ratio of 5% or lower (almost no effect))
Rice plant
  b: directly sowed rice plant, effect on crop grade: 5 (Herbicidal ratio of 90% or more (almost completely withered))
Lolium multiflorum Lam.; [13]
  Herbicidal effect grade, K: Lolium multiflorum Lam.: 5 (Herbicidal ratio of 90% or more (almost completely withered))
Veronica persica [11]; [13]
  Herbicidal effect grade, R: Veronica persica: 3 (Herbicidal ratio of 40% or higher and lower than 70%)
